Laboratory results taken from patent US20220370467A1, “USING OF A PPAR-DELTA AGONIST IN THE TREATMENT OF KIDNEY DISEASE” (Reneo Pharmaceuticals, Inc., priority 2019, published 2022).
Entries after “also recorded” stand apart in the source; their conditions may differ.

How the values were obtained:
FXR = target: T1, FXR (Homo sapiens, UniProt Q96RI1); assay: activity on nuclear receptor FXR
T1 sequence (Q96RI1 1-486): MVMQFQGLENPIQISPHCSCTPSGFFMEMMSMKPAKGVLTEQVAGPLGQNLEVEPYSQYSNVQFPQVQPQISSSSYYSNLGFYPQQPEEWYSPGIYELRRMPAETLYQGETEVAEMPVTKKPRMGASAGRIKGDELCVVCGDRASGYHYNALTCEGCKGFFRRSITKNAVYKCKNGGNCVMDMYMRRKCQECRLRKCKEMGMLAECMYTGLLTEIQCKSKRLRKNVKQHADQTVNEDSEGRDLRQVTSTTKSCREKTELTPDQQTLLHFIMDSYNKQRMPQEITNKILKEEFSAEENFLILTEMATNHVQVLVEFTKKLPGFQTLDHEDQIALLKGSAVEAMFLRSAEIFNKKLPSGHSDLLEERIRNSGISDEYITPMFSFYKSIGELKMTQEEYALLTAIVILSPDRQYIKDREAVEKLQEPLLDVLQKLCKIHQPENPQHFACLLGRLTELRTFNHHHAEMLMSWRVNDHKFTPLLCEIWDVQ

[1] = tested on: B6129S1 hybrid Col4a3−/− mice; assay: Mouse Alport model of kidney fibrosis, Study 1; format: in vivo
Source text: (§1) Mice with mutations in one of the collagen IV genes of glomerular basement membrane collagen, Collagen IV-α3/α4/α5, have defects in glomerular function with development of kidney fibrosis. These mice develop renal dysfunction and die prematurely of renal failure with specific timing dependent on the strain background upon which the mutation is present.
(§2) Generation of Col4a3^−/−mice was as described in Miner, J. H., and Sanes, J. R. (1996), J. Cell Biol. 135:1403-1413. Studies of Compound 1 efficacy in Alport models of kidney fibrosis were performed using mice on two different strain backgrounds. Study 1 used B 6129S1 F1 hybrid Alport mice that usually reach end stage renal disease (ESRD) at about 17 to 19 weeks. These were generated by crosses between C57BL6/J (B 6) and 129S1/Sv1mJ (129S1) Alport mice. Study 2 used inbred 129S1 Col4a3^−/− mice, which usually reach ESRD at about 11 to 13 weeks.
Study 1—B6129S1 hybrid Col4a3^−/− mice were given administrations via intraperitoneal injection of either vehicle (PBS) or Compound 1 (10 mg/kg) once a day from 6 to 17-weeks of age. There were 12 mice per group. B6129S1 hybrid Col4a3^+/− mice were used as non-disease controls. Compound 1 was dissolved at 2 mg/mL in PBS twice a week. The dosing volume was calculated as body weight (g)*5 μL (e.g. body weight 20 g: 20*5=100 μL).
(§3) Urine and blood samples were collected at the time points of 12, 15, and 17-weeks of age for B6129S1 hybrid Col4a3^+/−, −/− mice and at 8 and 10-weeks of age for inbred 129S1 Col4a3^−/− mice. Urinary protein concentration was determined by Bradford assay (Cat. 5000006, Bio-Rad) and comparison with bovine serum albumin standards. Urinary creatinine was measured by QuantiChrom™ Creatinine Assay Kit (Cat.DICT-500, BioAssay systems) and used to normalize the amount of urine. Blood urea nitrogen (BUN) levels were measured by QuantiChrom™ Urea Assay Kit (Cat.DUR2-100, BioAssay systems). Urine and blood samples were stored at −20° C. and −80° C. respectively after collection and subsequently analyzed.
For biochemistry, kidneys were collected from 15 and 17-week old B 6129S1 hybridCol4a3^+/−, −/− mice; and from 8 and 10-week old inbred 129S1 Col4a3^−/− mice. Collected kidneys were quickly frozen by liquid nitrogen and stored at −80° C. Kidneys were minced in cold PBS containing protease inhibitor (Cat. 786-108, G-BIOSCIENCES), centrifuged, and supernatants were removed. Tissue pellets were washed with PBS and centrifuged again. Tissue pellets were lysed with RIPA buffer containing protease inhibitor and phosphatase inhibitor (Sigma-Aldrich, Cat. P5726). Protein concentration was measured by BCA assays (Cat. 23227, ThermoFisher). The following antibodies were used in western blotting: anti-kidney injury molecule 1 (KIM1) antibody (AF1817, R&D), anti-Lipocalin2/NGAL antibody (ab70287, abcam), anti-phosho-STAT3 antibody (#9145, CST), anti-CTGFantibody (sc-365970, Santa Cruz), anti-TGFb 1,2,3 antibody (MAB1835, R&D), anti-Fibronectin antibody (F3648,Sigma), anti-alpha smooth muscle acting (SMA) antibody (F3777, Sigma), anti-Collagen I antibody (1310-01, SouthernBiotech), anti-Collagen IV antibody (1340-01, SouthernBiotech), anti-alpha Tubulin antibody (#2144, CST).
For all groups, analysis includes measurement of blood urea nitrogen and urinary albumin: creatinine ratios. The analysis also includes renal histopathology (glomerulosclerosis and tubulo-interstitial fibrosis; and analysis of glomerular basement membrane and podocyte ultrastructure. Plasma samples are analyzed for Compound 1 concentration to ensure adequate circulating levels for efficient target engagement. qRT-PCR is performed using RNA from several relevant tissues to examine expression of known transcriptional targets of PPARδ (e.g., PGC1α).
All data are presented as mean±SEM. Statistical significance was determined by Oneway ANOVA with Dunnett's multiple comparison for more than three group comparison and Student's t test for two group comparison.

[2] = tested on: inbred 129S1 Col4a3−/− mice; assay: Mouse Alport model of kidney fibrosis, Study 2; format: in vivo
Source text: as §1
as §2, with “13 weeks. […]” for “13 weeks.”
as §3
For biochemistry, kidneys were collected from 15 and 17-week old B 6129S1 hybridCol4a3^+/−, −/− mice; and from 8 and 10-week old inbred 129S1 Col4a3^−/− mice. […] Protein concentration was measured by BCA assays (Cat. 23227, ThermoFisher). […]
All data are presented as mean±SEM. Statistical significance was determined by Oneway ANOVA with Dunnett's multiple comparison for more than three group comparison and Student's t test for two group comparison. […]

[3] = 10 mg/kg i.p., compared with vehicle-treated mice
[4] = whole kidneys, western blotting
[5] = 3 or 10 mg/kg i.p. once a day, samples at 8 and 10-weeks of age, data not shown

Cc1cc(OC/C=C(/c2ccc(F)cc2)c2ccc(C#CCN3CCOCC3)cc2)ccc1OCC(=O)O [Compound 1, (E)-[4-[3-(4-Fluorophenyl)-3-[4-[3-(morpholin-4-yl)propynyl]phenyl]allyloxy]-2-methyl-phenoxy]acetic acid]
activity on FXR (FXR): did not show any
kidney dysfunction ([1]; 10 mg/kg i.p. once a day from 6 to 17-weeks of age): attenuated
blood urea nitrogen (BUN) ([1]; 10 mg/kg i.p. once a day, at 12 and 17-weeks of age): suppressed the increase
proteinuria ([1]; 10 mg/kg i.p. once a day, at 17-weeks of age (late stage)): suppressed; also recorded: significantly reduced
renal histology ([1]; 10 mg/kg i.p., H&E and Trichrome kidney sections): slightly improved
extent of fibrosis [1, 3]: slightly decreased; also recorded: decreased
necrotic regions in the cortex [1, 3]: decreased
infiltration of inflammatory cells ([1]; 10 mg/kg i.p., microscopic examination of kidney sections): slightly reduced
CTGF expression [1, 4]: attenuated
Collagen I expression [1, 4]: decreased
Collagen IV expression [1, 4]: decreased
NGAL protein level [1, 4]: decreased
alpha-SMA expression [1, 4]: decreased
fibronectin expression [1, 4]: not changed
phosho-Stat3 expression [1, 4]: attenuated
KIM-1 protein level ([1]; whole kidneys, western blotting, vs vehicle): not changed
kidney dysfunction ([2]; 3 or 10 mg/kg i.p. once a day from 4 to 10-weeks of age): did not attenuate
BUN [2, 5]: did not result in any significant reduction
proteinuria [2, 5]: did not result in any significant reduction
